# Reference: ChEMBL document CHEMBL1201862, “PubChem BioAssay data set” (2004)
# Structures can show the parent of a compound that is named as a salt. The source made the active and inactive calls.
# Experiments:
# Aminopeptidase N = molecular target: T1, Aminopeptidase N (Plasmodium falciparum FcB1/Columbia, UniProt O96935); assay: malaria alanyl aminopeptidase activity blockers – biochemical, fluorogenic H-Leu-NHMec substrate, 1536-well (AID 1445); parameters: species or system Plasmodium falciparum 3D7, 3D7
# T1 sequence (O96935 whole entry): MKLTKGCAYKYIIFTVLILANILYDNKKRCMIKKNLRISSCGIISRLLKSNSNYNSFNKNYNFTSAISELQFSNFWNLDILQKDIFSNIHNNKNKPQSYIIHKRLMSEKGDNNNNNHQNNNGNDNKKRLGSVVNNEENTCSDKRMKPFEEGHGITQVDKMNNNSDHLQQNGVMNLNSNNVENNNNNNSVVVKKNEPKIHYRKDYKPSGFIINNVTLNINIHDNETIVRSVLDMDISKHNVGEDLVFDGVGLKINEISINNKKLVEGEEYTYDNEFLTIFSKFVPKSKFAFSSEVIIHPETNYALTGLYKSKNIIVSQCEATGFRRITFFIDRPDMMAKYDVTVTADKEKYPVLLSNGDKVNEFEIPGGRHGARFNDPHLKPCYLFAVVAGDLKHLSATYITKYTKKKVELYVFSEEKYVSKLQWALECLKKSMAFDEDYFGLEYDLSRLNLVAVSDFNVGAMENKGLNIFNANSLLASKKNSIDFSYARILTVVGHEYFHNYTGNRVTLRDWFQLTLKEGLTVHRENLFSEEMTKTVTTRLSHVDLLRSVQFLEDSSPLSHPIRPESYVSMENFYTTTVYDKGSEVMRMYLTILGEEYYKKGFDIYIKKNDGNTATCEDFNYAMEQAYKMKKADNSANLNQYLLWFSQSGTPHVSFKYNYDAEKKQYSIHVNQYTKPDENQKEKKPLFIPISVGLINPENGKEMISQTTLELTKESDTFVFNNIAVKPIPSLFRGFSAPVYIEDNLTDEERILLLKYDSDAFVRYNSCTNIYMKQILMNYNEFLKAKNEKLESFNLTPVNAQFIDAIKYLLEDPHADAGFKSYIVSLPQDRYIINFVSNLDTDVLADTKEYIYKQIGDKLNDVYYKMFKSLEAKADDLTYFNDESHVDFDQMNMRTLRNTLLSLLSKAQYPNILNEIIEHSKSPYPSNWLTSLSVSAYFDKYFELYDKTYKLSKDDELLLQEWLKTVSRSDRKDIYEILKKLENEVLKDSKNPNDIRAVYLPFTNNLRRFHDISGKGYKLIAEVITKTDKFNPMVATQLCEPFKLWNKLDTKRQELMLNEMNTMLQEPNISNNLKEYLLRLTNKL
# HeLa = assay: ATP-based viability loss in HeLa cells – cell-based, CellTiter-Glo luminescence, cherry-pick samples, cytotoxicity control for MITF activator project, dose response (AID 540259); format: functional; conditions: Homo sapiens
# Bcl-2-related protein A1 = molecular target: T2, Bcl-2-related protein A1 (Mus musculus, UniProt Q07440); format: functional;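 further: confirmatory dose–response counterscreen on Bfl-1, used to check hits from a UBC13 polyubiquitin inhibitor campaign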
# T2 sequence (Q07440 whole entry): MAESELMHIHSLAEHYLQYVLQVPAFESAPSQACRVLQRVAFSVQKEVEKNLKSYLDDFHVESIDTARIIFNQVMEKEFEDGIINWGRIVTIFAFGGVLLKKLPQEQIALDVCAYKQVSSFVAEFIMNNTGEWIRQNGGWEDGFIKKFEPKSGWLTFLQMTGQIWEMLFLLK
# [1] = molecular target: T3, Ubiquitin-conjugating enzyme E2 N (Homo sapiens, UniProt P61088); format: functional
# T3 sequence (P61088 whole entry): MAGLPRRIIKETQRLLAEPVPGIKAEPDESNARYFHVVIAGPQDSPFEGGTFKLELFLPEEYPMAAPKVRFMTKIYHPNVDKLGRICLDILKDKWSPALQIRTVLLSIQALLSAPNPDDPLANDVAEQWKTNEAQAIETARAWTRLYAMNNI
# [2] = molecular target: T3, Ubiquitin-conjugating enzyme E2 N; format: functional; remark: listed apart in the source
# HEK293 [3] = assay: cells; format: functional, cell-based; conditions: Homo sapiens
# [4] = molecular target: T4, Nuclear receptor subfamily 0 group B member 1 (Homo sapiens, UniProt P51843); assay: Luminescence-based cell-based high throughput dose response assay for inhibitors of the orphan nuclear receptor subfamily 0, group B, member 1 (DAX1; NR0B1). [Related pubchem assays (depositor defined):AID504766, AID504790]; format: functional
# T4 sequence (P51843 whole entry): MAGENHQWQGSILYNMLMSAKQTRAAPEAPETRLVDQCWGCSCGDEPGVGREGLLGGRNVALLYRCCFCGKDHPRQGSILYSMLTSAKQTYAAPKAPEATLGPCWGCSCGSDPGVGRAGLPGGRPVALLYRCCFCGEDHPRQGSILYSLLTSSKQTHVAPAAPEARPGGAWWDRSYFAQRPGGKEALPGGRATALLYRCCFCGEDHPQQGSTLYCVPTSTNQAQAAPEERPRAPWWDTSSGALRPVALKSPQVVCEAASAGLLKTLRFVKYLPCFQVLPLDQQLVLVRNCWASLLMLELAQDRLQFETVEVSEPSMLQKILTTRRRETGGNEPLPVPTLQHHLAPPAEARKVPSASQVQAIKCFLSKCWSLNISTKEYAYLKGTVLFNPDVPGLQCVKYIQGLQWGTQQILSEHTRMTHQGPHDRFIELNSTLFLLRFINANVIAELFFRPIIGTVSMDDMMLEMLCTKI
# [5] = HEK-293T viability loss after treatment – luminescence, T-cell screen hits, cytotoxicity control for TCR NF-kB inhibitor project, dose response (AID 489026); format: functional, cell-based;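 further: cells exposed to compound about 14 hours before the viability readout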
# [6] = Luminescence Cell-Based Dose Confirmation HTS to Identify Activators of 5'UTR Stem-Loop Driven Alpha-Synuclein mRNA Translation in H4 Neuroglioblastoma Cells. [Related pubchem assays: 1829 (Project Summary), 1814 (Primary HTS)]; format: functional
# [7] = Luminescence Cell-Based Dose Response HTS to Identify Activators of Luciferase Translation or Activity in H4 […] Cells. [Related pubchem assays: 1829 (Project Summary), 1814 (Primary HTS)]; format: functional
# H4 = assay: Luminescence Cell-Based Dose Response HTS to Identify Activators of 5'UTR Stem-Loop Driven Prion Protein mRNA Translation in H4 Neuroglioblastoma Cells. [Related pubchem assays: 1829 (Project Summary), 1814 (Primary HTS)]; format: functional; conditions: Homo sapiens
# [8] = THP-1 cell cytotoxicity, dose response, cytotoxicity control for non-replicating M. tuberculosis project (AID 489025); format: functional
# cells = format: functional
# Vero = assay: cells; format: functional; conditions: Chlorocebus sabaeus
# HEK293 [9] = assay: EBV LMP1 TES2 canonical NF-kB signalling blockers – cell-based, HEK293, luciferase, cherry-pick, dose response (AID 588343); format: functional; conditions: Homo sapiens
# Escherichia coli [10] = assay: microbe, parasite or virus in culture
# Escherichia coli [11] = assay: microbe, parasite or virus in culture; remark: listed apart in the source
# [12] = molecular target: Peroxisome proliferator-activated receptor gamma/Nuclear receptor coactivator 1 (Homo sapiens, UniProt P37231); assay: (§1) TR-FRET dose response biochemical High Throughput Screening assay for agonists of the steroid receptor coactivator 1 (SRC-1) recruitment by the peroxisome proliferator-activated receptor gamma (PPAR gamma): non-selective agonists. [Related pubchem assays (depositor defined):AID1300, AID1808, AID504735, AID631]; format: protein assay
# Peroxisome proliferator-activated receptor gamma/Nuclear receptor coactivator 1, sequence (P37231 whole entry): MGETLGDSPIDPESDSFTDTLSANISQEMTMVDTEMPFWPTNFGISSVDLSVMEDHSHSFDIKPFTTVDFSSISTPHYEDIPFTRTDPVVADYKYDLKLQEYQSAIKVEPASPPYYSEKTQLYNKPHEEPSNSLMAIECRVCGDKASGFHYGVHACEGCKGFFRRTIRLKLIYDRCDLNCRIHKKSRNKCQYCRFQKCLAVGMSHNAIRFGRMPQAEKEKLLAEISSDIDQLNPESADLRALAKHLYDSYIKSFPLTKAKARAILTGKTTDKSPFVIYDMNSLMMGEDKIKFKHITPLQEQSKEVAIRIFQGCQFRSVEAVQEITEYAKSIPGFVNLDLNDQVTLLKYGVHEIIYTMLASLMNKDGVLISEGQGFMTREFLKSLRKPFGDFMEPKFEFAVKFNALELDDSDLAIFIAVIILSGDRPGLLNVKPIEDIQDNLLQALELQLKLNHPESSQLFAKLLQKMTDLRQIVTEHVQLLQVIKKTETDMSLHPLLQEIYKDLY
# Peroxisome proliferator-activated receptor gamma/Nuclear receptor coactivator 1, sequence (Q15788 whole entry, further chain): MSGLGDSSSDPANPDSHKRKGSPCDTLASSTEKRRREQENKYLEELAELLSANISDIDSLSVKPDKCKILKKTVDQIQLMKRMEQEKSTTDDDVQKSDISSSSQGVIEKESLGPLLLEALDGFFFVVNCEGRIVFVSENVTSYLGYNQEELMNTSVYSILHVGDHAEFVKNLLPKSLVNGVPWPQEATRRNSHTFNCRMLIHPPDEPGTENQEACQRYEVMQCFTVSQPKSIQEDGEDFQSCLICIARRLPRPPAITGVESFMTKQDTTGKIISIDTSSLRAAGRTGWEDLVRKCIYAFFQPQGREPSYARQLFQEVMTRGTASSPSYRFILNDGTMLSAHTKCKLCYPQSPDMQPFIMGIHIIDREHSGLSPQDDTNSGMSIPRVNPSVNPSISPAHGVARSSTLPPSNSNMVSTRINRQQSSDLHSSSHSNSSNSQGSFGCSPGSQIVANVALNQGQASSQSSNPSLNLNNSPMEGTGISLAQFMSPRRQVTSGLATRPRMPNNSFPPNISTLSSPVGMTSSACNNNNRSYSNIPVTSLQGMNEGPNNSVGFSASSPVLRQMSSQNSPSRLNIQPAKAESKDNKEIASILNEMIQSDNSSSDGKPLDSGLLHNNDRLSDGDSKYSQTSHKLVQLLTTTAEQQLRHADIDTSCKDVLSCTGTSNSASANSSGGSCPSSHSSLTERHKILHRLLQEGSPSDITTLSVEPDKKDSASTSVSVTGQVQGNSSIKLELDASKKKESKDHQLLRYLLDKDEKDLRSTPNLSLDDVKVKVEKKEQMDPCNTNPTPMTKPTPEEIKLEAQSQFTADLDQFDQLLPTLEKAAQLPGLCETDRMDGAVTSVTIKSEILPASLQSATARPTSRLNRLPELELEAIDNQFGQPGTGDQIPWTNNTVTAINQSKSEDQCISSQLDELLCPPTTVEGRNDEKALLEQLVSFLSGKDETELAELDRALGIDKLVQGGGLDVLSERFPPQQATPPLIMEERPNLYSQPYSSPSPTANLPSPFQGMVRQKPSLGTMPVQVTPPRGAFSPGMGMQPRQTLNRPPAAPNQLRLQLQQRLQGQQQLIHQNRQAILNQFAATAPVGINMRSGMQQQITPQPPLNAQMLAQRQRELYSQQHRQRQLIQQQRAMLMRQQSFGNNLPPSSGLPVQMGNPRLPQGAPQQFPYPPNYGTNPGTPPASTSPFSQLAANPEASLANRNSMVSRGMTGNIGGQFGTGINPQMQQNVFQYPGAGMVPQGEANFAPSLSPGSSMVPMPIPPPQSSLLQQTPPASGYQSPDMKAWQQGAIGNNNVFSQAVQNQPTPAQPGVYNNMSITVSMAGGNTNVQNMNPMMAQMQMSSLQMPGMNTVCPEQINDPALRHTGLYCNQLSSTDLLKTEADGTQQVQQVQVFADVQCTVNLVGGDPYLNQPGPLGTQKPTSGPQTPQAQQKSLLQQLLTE
# [13] = molecular target: Peroxisome proliferator-activated receptor gamma/Nuclear receptor coactivator 3 (Homo sapiens, UniProt P37231); assay: as §1, with “3 (SRC-3)” for “1 (SRC-1)”, “assays: 1301 (Confirmation screen.), 1048 (Primary screen.)]” for “assays (depositor defined):AID1300, AID1808, AID504735, AID631]”; format: functional
# Peroxisome proliferator-activated receptor gamma/Nuclear receptor coactivator 3, sequence (P37231 whole entry): as the sequence (P37231 whole entry) above
# Peroxisome proliferator-activated receptor gamma/Nuclear receptor coactivator 3, sequence (Q9Y6Q9 whole entry, further chain): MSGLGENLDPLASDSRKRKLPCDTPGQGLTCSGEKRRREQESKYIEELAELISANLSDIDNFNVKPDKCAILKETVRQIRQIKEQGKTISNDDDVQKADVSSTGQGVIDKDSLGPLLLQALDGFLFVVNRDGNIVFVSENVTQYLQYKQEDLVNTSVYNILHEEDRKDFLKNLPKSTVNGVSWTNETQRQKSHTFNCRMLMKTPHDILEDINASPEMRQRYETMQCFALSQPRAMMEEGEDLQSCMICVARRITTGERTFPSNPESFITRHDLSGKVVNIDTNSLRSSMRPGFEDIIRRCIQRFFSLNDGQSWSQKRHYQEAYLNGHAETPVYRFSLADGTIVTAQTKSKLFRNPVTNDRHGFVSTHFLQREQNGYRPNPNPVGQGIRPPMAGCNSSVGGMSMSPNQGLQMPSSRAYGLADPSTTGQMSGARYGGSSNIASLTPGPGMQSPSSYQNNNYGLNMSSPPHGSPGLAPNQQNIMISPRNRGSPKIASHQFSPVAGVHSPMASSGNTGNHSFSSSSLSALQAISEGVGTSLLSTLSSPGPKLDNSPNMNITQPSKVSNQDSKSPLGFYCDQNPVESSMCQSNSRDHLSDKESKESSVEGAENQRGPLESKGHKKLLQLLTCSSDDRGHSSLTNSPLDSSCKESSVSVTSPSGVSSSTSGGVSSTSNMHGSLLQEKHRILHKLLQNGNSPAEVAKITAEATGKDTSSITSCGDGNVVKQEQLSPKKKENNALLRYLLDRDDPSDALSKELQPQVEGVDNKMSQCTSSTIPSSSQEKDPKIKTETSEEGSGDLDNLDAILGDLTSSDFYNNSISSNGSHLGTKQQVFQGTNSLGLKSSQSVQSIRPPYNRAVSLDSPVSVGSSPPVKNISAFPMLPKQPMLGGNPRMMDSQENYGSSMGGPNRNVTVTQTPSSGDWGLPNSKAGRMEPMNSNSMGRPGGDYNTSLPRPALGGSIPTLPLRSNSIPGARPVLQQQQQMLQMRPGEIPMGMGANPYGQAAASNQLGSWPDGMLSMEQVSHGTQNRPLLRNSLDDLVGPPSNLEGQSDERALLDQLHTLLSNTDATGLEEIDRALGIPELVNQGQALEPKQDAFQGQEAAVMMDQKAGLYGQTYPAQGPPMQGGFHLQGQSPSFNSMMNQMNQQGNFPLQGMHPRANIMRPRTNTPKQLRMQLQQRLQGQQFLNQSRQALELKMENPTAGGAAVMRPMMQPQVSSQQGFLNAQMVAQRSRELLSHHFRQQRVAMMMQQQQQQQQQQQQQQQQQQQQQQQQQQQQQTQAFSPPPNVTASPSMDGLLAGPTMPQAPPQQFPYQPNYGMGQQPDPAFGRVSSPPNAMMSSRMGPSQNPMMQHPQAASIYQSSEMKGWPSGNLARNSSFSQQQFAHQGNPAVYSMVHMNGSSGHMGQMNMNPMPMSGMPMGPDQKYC
# [14] = molecular target: Peroxisome proliferator-activated receptor gamma/Nuclear receptor coactivator 2 (Homo sapiens, UniProt P37231); assay: TR-FRET dose response biochemical High Throughput Screening assay for agonists of the steroid receptor coactivator 2 (SRC-2) recruitment by the peroxisome proliferator-activated receptor gamma (PPAR gamma): non-selective agonists. [Related pubchem assays: 1297, 1032 ]; format: functional
# [15] = molecular target: Luciferin 4-monooxygenase (Photinus pyralis, UniProt P08659); assay: inhibition of purified Photinus pyralis luciferase – biochemical, luminescence, dose response (AID 1891)
# Luciferin 4-monooxygenase, sequence (P08659 whole entry): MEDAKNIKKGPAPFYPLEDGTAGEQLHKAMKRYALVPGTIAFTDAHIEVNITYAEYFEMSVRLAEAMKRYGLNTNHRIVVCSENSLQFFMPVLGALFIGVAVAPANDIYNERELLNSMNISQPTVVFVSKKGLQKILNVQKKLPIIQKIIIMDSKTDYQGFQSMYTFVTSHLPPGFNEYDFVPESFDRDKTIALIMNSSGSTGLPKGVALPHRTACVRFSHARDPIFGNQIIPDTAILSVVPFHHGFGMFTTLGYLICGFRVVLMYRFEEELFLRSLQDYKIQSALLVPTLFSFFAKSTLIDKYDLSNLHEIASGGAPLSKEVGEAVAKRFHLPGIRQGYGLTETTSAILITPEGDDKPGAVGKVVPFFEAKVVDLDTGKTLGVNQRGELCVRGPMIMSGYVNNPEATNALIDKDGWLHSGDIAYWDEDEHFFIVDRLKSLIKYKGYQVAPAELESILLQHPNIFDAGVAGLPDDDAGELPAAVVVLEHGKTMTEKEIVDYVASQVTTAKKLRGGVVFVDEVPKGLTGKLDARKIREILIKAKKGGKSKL
# [16] = Luminescence Cell-Based Dose Confirmation HTS to Identify Inhibitors of Platelet Dense Granule Release. [Related pubchem assays: 1663 (Primary HTS), 1678 (Summary of Project)]; format: functional
# [17] = luciferase reporter signal suppression in cells – H4 neuroglioma cells, luminescence, dose response (AID 1990); format: functional, cell-based
# BJ [18] = assay: BJ-TERT fibroblast viability loss – cell-based, RAS-independent, luminescence, dose response (AID 1933); format: functional; conditions: Homo sapiens
# [19] = Luminescence Cell-Based Dose Response HTS to Identify Inhibitors of 5'UTR Stem-Loop Driven Prion Protein mRNA Translation in H4 Neuroglioblastoma Cells. [Related pubchem assays: 1827 (Project Summary), 1813 (Primary HTS)]; format: functional
# [20] = alpha-synuclein stem-loop luciferase translation blockers – H4 neuroglioma cells, luminescence, confirmation (AID 1988); format: functional, cell-based
# BJ [21] = assay: cells; format: functional, cell-based; conditions: Homo sapiens
# BJ [22] = assay: BJ-TERT-LT-ST fibroblast viability loss – cell-based, RAS-independent, luminescence, dose response (AID 1935); format: functional; conditions: Homo sapiens;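 further: BJ fibroblasts immortalized with TERT plus LT and ST oncogenes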
# [23] = DRD fibroblast viability loss – cell-based, non-viral oncogenic, luminescence, dose response (AID 1934); format: functional; conditions: Homo sapiens
smiles,measurement,setting,value
C=C(C)c1cccc(C(C)(C)NC(=O)Nc2ccc(C)cn2)c1,IC50,Aminopeptidase N,41.3 µM (active)
c1ccc(CCn2nnc3ccccc32)cc1,AC50,HeLa,207 µM (active)
CCN(CC)CCOC(=O)c1ccc(NC(=O)c2cn(-c3ccccc3)nc2-c2cccs2)cc1,IC50,Bcl-2-related protein A1,> 20 µM (inactive)
same,IC50,[1],8.78 µM (active)
same,IC50,[2],> 20 µM (inactive)
Cc1cc(C)c2c(N)c(C(=O)Nc3ccc(C)c(C)c3)sc2n1,IC50,HEK293 [3],> 67.6 µM (inactive)
same,IC50,[4],> 67.6 µM (inactive)
Cn1c(=O)c2c(ncn2Cc2ccc(Cl)c(Cl)c2)n(C)c1=O,IC50,Bcl-2-related protein A1,> 20 µM (inactive)
same,IC50,[1],16.3 µM (active)
same,IC50,[2],7.05 µM (active)
CCOC(=O)C1=C(COC(=O)c2ncc(Cl)c(Cl)c2Cl)NC(=O)NC1C (stereo not drawn),IC50,Bcl-2-related protein A1,> 20 µM (inactive)
same,IC50,[1],7.88 µM (active)
same,IC50,[2],9.23 µM (active)
C=CC[C@@H](CC/C=C/C=C/CC/C=C\[C@@H]1CSC([C@@H]2C[C@@H]2C)=N1)OC,IC50,[5],> 80 µM (inactive)
COc1cc2c(cc1OC)CN(C(=O)c1ccc([N+](=O)[O-])o1)CC2,EC50,[6],11.6 µM (active)
same,EC50,[7],37.5 µM (active)
same,EC50,H4,> 120 µM (not active)
same,CC50,[8],> 40 µM (active)
same,IC50,cells,0.14 µM (active)
CCOc1cccc(C(=O)NC2=NCCS2)c1,IC50,HEK293 [3],> 67.5 µM (inactive)
same,IC50,[4],> 67.5 µM (inactive)
COc1cc2nc(N3CCN(C(=O)c4ccco4)CC3)nc(N)c2cc1OC [PRAZOSIN HYDROCHLORIDE],CC50,Vero,16.9 µM (active)
CCOC(=O)c1nc(NCc2ccccc2F)c2ccccc2n1,AC50,HEK293 [9],> 350 µM (inactive)
same,AC50,Escherichia coli [10],> 150 µM (inactive)
same,AC50,Escherichia coli [11],52.7 µM (active)
CCn1c(=O)cc(SCC(=O)Nc2ccc3c(c2)OCCO3)c2ccccc21,EC50,[12],7.45 µM (active)
same,EC50,[13],> 79.4 µM (not active)
same,EC50,[14],7.21 µM (active)
CC(=O)c1ccc(NC(=O)CSc2nnc(C3CC3)n2C2CC2)cc1,AC50,Escherichia coli [11],109 µM (active)
COc1ccc2c(c1)CC/C2=N\OC(=O)c1ccccc1C,AC50,HeLa,51.1 µM (active)
Cc1cc(CNC(=O)c2cc(COc3ccc(F)c(F)c3)on2)nn1C,AC50,HeLa,66.8 µM (active)
CCSc1nnc(NC(=O)C2CC2c2ccccc2)s1 (stereo not drawn),EC50,[15],> 112 µM (not active)
same,EC50,[16],> 112 µM (not active)
same,IC50,HEK293 [3],> 67.5 µM (inactive)
same,IC50,[4],> 67.5 µM (inactive)
CN(C)c1ccnc2sc3c(SCc4ccc(Cl)cc4)ncnc3c12,AC50,HeLa,63.3 µM (active)
CN(C)/C=C(/C(=O)c1ccc(Cl)c(Cl)c1)c1nnnn1-c1ccccc1,IC50,HEK293 [3],> 67.5 µM (inactive)
same,IC50,[4],> 67.5 µM (inactive)
COc1ccc(NC(=O)C2C3C=CC(C3)C2C(=O)NCc2ccco2)c(OC)c1 (stereo not drawn),IC50,Aminopeptidase N,89.2 µM (active)
NC(=O)N/N=C\c1cc(Br)ccc1O,IC50,Aminopeptidase N,50.6 µM (active)
Cc1cccc(N2CCN(C(=O)c3c(-c4ccccc4)noc3C)CC2)c1C,EC50,[17],10.9 µM (active)
same,EC50,BJ [18],4.1 µM (active)
same,EC50,[19],17.1 µM (active)
same,EC50,[20],6.76 µM (active)
same,EC50,BJ [21],89.6 µM (active)
same,EC50,BJ [22],2.67 µM (active)
same,EC50,[23],2.58 µM (active)
same,IC50,[5],> 80 µM (inactive)
CCCc1cc(C(=O)Nc2cc(C)ccc2O)no1,IC50,[5],> 80 µM (inactive)
Cn1cc(Cl)c(-c2nnc(S)n2-c2ccccc2)n1,EC50,[12],> 79.4 µM (inactive)
same,EC50,[13],> 79.4 µM (not active)
same,EC50,[14],> 79.4 µM (not active)
O=C(N/N=C/c1cccn1-c1ccc([N+](=O)[O-])cc1)c1cccnc1,CC50,Vero,> 25 µM (active)
